{"source": "patent US20070128217A1", "about": "(priority 2003, published 2007)", "key": {"[1]": {"system": "antibodies in sera from SARS patients (sera 1a, 1b, 2, 6, 37, 62, London, SARS-yellow, SARS-green)", "format": "binding, human", "set-up": "Binding of serum 6 to linear peptides of protein X1 of SARS-CoV Urbani / Binding of serum 37 to linear peptides of protein X1 of SARS-CoV Urbani / Binding of serum 6 to looped/cyclic peptide (PEPSCAN-ELISA) / Binding of serum 37 to looped/cyclic peptide (PEPSCAN-ELISA) / Binding of serum 37 to looped/cyclic peptides of protein X1 of SARS-CoV Urbani / Binding of serum 6 to linear peptides of protein X2 / Binding of serum 37 to linear peptides of protein X2 / Binding of serum 37 to looped/cyclic peptides of protein X2 of SARS-CoV Urbani / Binding of serum 6 to linear peptides of protein M of SARS-CoV Urbani / Binding of serum 37 to linear peptides of protein M of SARS-CoV Urbani / Binding of serum 6 to looped/cyclic peptides of protein M of SARS-CoV Urbani / Binding of serum 37 to looped/cyclic peptides of protein M of SARS-CoV Urbani / Binding of serum 6 to linear peptides of protein X3 of SARS-CoV Urbani / Binding of serum 37 to linear peptides of protein X3 of SARS-CoV Urbani / Binding of serum 37 to looped/cyclic peptides of protein X3 of SARS-CoV Urbani / Binding of serum 6 to linear peptides of protein X4 of SARS-CoV Urbani / Binding of serum 37 to linear peptides of protein X4 of SARS-CoV Urbani / Binding of serum 37 to looped/cyclic peptides of protein X4 of SARS-CoV Urbani / Binding of serum 6 to linear peptides of protein X5 of SARS-CoV Urbani / Binding of serum 37 to linear peptides of protein X5 of SARS-CoV Urbani / Binding of serum 37 to looped/cyclic peptides of protein X5 of SARS-CoV Urbani / Binding of serum 6 to linear peptides of protein N of SARS-CoV Urbani / Binding of serum 37 to linear peptides of protein N of SARS-CoV Urbani / Binding of serum 6 to linear peptide (PEPSCAN-ELISA) / Binding of serum 1a to looped/cyclic peptides of protein N of SARS-CoV Urbani / Binding of serum 1b to looped/cyclic peptides of protein N of SARS-CoV Urbani / Binding of serum 2 to looped/cyclic peptides of protein N of SARS-CoV Urbani / Binding of serum 6 to looped/cyclic peptides of protein N of SARS-CoV Urbani / Binding of serum 37 to looped/cyclic peptides of protein N of SARS-CoV Urbani / Binding of serum 62 to looped/cyclic peptides of protein N of SARS-CoV Urbani / Binding of serum London to looped/cyclic peptides of protein N of SARS-CoV Urbani / Binding of serum SARS-green to looped/cyclic peptides of protein N of SARS-CoV Urbani: unit not given here"}, "[2]": {"system": "control sera (pooled serum of ten healthy LUMC hospital workers; commercial negative donor pooled serum from the Dutch bloodbank)", "format": "binding, human", "set-up": "Binding of Control serum LUMC to linear peptides / Binding of Control serum Blood-bank to linear peptides / Binding of Control serum LUMC to looped peptides / Binding of Control Serum Blood-Bank to Looped peptides / Binding of Control serum LUMC to linear peptides of the protein M of SARS-CoV Urbani / Binding of Control serum Blood-bank to linear peptides of the protein M of SARS-CoV Urbani / Binding of Control serum LUMC to looped peptides of the protein M of SARS-CoV Urbani / Binding of Control Serum Blood-Bank to Looped peptides of the protein M of SARS-CoV Urbani: unit not given here"}, "[3]": {"system": "rabbit serum obtained by immunizing a rabbit with the SARS-CoV strain Frankfurt 1", "format": "binding", "set-up": "Binding of a rabbit serum to linear peptides / Binding of a rabbit serum to looped peptides / Rabbit serum linear peptides / Rabbit serum looped peptides / Binding of a rabbit serum to linear peptides of protein N of SARS-CoV Urbani (Rabbit serum linear peptides) / Binding of a rabbit serum to looped/cyclic peptides of protein N of SARS-CoV Urbani (Rabbit serum looped peptides): unit not given here"}}}
{"sequence": "MKIILFLTLIVFTSC", "values": [{"measurement": "Binding of serum 1a to linear peptides of protein X4 of SARS-CoV Urbani", "setting": "[1]", "result": 0.6}, {"measurement": "Binding of serum 1a to looped/cyclic peptides of protein X4 of SARS-CoV Urbani", "setting": "[1]", "result": 0.6}, {"measurement": "Binding of serum 1b to linear peptides of protein X4 of SARS-CoV Urbani", "setting": "[1]", "result": 0.5}, {"measurement": "Binding of serum 1b to looped/cyclic peptides of protein X4 of SARS-CoV Urbani", "setting": "[1]", "result": 0.0}, {"measurement": "Binding of serum 2 to linear peptides of protein X4 of SARS-CoV Urbani", "setting": "[1]", "result": 0.4}, {"measurement": "Binding of serum 2 to looped/cyclic peptides of protein X4 of SARS-CoV Urbani", "setting": "[1]", "result": 0.5}, {"measurement": "Binding of serum 6 to linear peptides of protein X4 of SARS-CoV Urbani", "setting": "[1]", "result": 0.4}, {"measurement": "Binding of serum 6 to looped/cyclic peptides of protein X4 of SARS-CoV Urbani", "setting": "[1]", "result": 0.5}, {"measurement": "Binding of serum 37 to linear peptides of protein X4 of SARS-CoV Urbani", "setting": "[1]", "result": 0.7}, {"measurement": "Binding of serum 37 to looped/cyclic peptides of protein X4 of SARS-CoV Urbani", "setting": "[1]", "result": 0.6}, {"measurement": "Binding of serum 62 to linear peptides of protein X4 of SARS-CoV Urbani", "setting": "[1]", "result": 0.7}, {"measurement": "Binding of serum 62 to looped/cyclic peptides of protein X4 of SARS-CoV Urbani", "setting": "[1]", "result": 0.5}, {"measurement": "Binding of serum London to linear peptides of protein X4 of SARS-CoV Urbani", "setting": "[1]", "result": 0.7}, {"measurement": "Binding of serum London to looped/cyclic peptides of protein X4 of SARS-CoV Urbani", "setting": "[1]", "result": 0.2}, {"measurement": "Binding of serum SARS-green to linear peptides of protein X4 of SARS-CoV Urbani", "setting": "[1]", "result": 0.4}, {"measurement": "Binding of serum SARS-green to looped/cyclic peptides of protein X4 of SARS-CoV Urbani", "setting": "[1]", "result": 0.3}, {"measurement": "Binding of serum SARS-yellow to linear peptides of protein X4 of SARS-CoV Urbani", "setting": "[1]", "result": 0.5}, {"measurement": "Binding of serum SARS-yellow to looped/cyclic peptides of protein X4 of SARS-CoV Urbani", "setting": "[1]", "result": 0.6}, {"measurement": "Binding of Control Serum Blood-Bank to Looped peptides", "setting": "[2]", "result": 0.6}, {"measurement": "Binding of Control serum Blood-bank to linear peptides", "setting": "[2]", "result": 0.6}, {"measurement": "Binding of Control serum LUMC to linear peptides", "setting": "[2]", "result": 0.5}, {"measurement": "Binding of Control serum LUMC to looped peptides", "setting": "[2]", "result": 0.7}, {"measurement": "Rabbit serum linear peptides", "setting": "[3]", "result": 0.7}, {"measurement": "Rabbit serum looped peptides", "setting": "[3]", "result": 0.4}]}
{"sequence": "MLHSSSLTSLLKTHR", "values": [{"measurement": "Binding of serum 1a to linear peptides of protein X2", "setting": "[1]", "result": 0.6}, {"measurement": "Binding of serum 1a to looped/cyclic peptides of protein X2 of SARS-CoV Urbani", "setting": "[1]", "result": 0.5}, {"measurement": "Binding of serum 1b to linear peptides of protein X2", "setting": "[1]", "result": 0.4}, {"measurement": "Binding of serum 1b to looped/cyclic peptides of protein X2 of SARS-CoV Urbani", "setting": "[1]", "result": 0.5}, {"measurement": "Binding of serum 2 to linear peptides of protein X2", "setting": "[1]", "result": 0.4}, {"measurement": "Binding of serum 2 to looped/cyclic peptides of protein X2 of SARS-CoV Urbani", "setting": "[1]", "result": 0.5}, {"measurement": "Binding of serum 6 to linear peptides of protein X2", "setting": "[1]", "result": 0.6}, {"measurement": "Binding of serum 6 to looped/cyclic peptides of protein X2 of SARS-CoV Urbani", "setting": "[1]", "result": 0.2}, {"measurement": "Binding of serum 37 to linear peptides of protein X2", "setting": "[1]", "result": 0.5}, {"measurement": "Binding of serum 37 to looped/cyclic peptides of protein X2 of SARS-CoV Urbani", "setting": "[1]", "result": 0.3}, {"measurement": "Binding of serum 62 to linear peptides of protein X2", "setting": "[1]", "result": 0.5}, {"measurement": "Binding of serum 62 to looped/cyclic peptides of protein X2 of SARS-CoV Urbani", "setting": "[1]", "result": 0.5}, {"measurement": "Binding of serum London to linear peptides of protein X2", "setting": "[1]", "result": 0.6}, {"measurement": "Binding of serum London to looped/cyclic peptides of protein X2 of SARS-CoV Urbani", "setting": "[1]", "result": 0.2}, {"measurement": "Binding of serum SARS-green to linear peptides of protein X2", "setting": "[1]", "result": 0.5}, {"measurement": "Binding of serum SARS-green to looped/cyclic peptides of protein X2 of SARS-CoV Urbani", "setting": "[1]", "result": 0.4}, {"measurement": "Binding of serum SARS-yellow to linear peptides of protein X2", "setting": "[1]", "result": 0.5}, {"measurement": "Binding of serum SARS-yellow to looped/cyclic peptides of protein X2 of SARS-CoV Urbani", "setting": "[1]", "result": 0.5}, {"measurement": "Binding of Control Serum Blood-Bank to Looped peptides", "setting": "[2]", "result": 0.6}, {"measurement": "Binding of Control serum Blood-bank to linear peptides", "setting": "[2]", "result": 0.5}, {"measurement": "Binding of Control serum LUMC to linear peptides", "setting": "[2]", "result": 0.4}, {"measurement": "Binding of Control serum LUMC to looped peptides", "setting": "[2]", "result": 0.5}, {"measurement": "Binding of a rabbit serum to linear peptides", "setting": "[3]", "result": 0.2}, {"measurement": "Binding of a rabbit serum to looped peptides", "setting": "[3]", "result": 0.5}]}
{"sequence": "MLLQFAYSNRNRFLY", "values": [{"measurement": "Binding of serum 1a to linear peptides of protein M of SARS-CoV Urbani", "setting": "[1]", "result": 0.6}, {"measurement": "Binding of serum 1a to looped/cyclic peptides of protein M of SARS-CoV Urbani", "setting": "[1]", "result": 0.8}, {"measurement": "Binding of serum 1b to linear peptides of protein M of SARS-CoV Urbani", "setting": "[1]", "result": 0.4}, {"measurement": "Binding of serum 1b to looped/cyclic peptides of protein M of SARS-CoV Urbani", "setting": "[1]", "result": 0.2}, {"measurement": "Binding of serum 2 to linear peptides of protein M of SARS-CoV Urbani", "setting": "[1]", "result": 0.5}, {"measurement": "Binding of serum 2 to looped/cyclic peptides of protein M of SARS-CoV Urbani", "setting": "[1]", "result": 0.6}, {"measurement": "Binding of serum 6 to linear peptides of protein M of SARS-CoV Urbani", "setting": "[1]", "result": 0.2}, {"measurement": "Binding of serum 6 to looped/cyclic peptides of protein M of SARS-CoV Urbani", "setting": "[1]", "result": 1.3}, {"measurement": "Binding of serum 37 to linear peptides of protein M of SARS-CoV Urbani", "setting": "[1]", "result": 0.8}, {"measurement": "Binding of serum 37 to looped/cyclic peptides of protein M of SARS-CoV Urbani", "setting": "[1]", "result": 0.6}, {"measurement": "Binding of serum 62 to linear peptides of protein M of SARS-CoV Urbani", "setting": "[1]", "result": 0.7}, {"measurement": "Binding of serum 62 to looped/cyclic peptides of protein M of SARS-CoV Urbani", "setting": "[1]", "result": 0.5}, {"measurement": "Binding of serum London to linear peptides of protein M of SARS-CoV Urbani", "setting": "[1]", "result": 0.2}, {"measurement": "Binding of serum London to looped/cyclic peptides of protein M of SARS-CoV Urbani", "setting": "[1]", "result": 0.3}, {"measurement": "Binding of serum SARS-green to linear peptides of protein M of SARS-CoV Urbani", "setting": "[1]", "result": 0.2}, {"measurement": "Binding of serum SARS-green to looped/cyclic peptides of protein M of SARS-CoV Urbani", "setting": "[1]", "result": 0.2}, {"measurement": "Binding of serum SARS-yellow to linear peptides of protein M of SARS-CoV Urbani", "setting": "[1]", "result": 0.1}, {"measurement": "Binding of serum SARS-yellow to looped/cyclic peptides of protein M of SARS-CoV Urbani", "setting": "[1]", "result": 0.3}, {"measurement": "Binding of Control Serum Blood-Bank to Looped peptides of the protein M of SARS-CoV Urbani", "setting": "[2]", "result": 0.4}, {"measurement": "Binding of Control serum Blood-bank to linear peptides of the protein M of SARS-CoV Urbani", "setting": "[2]", "result": 0.6}, {"measurement": "Binding of Control serum LUMC to linear peptides of the protein M of SARS-CoV Urbani", "setting": "[2]", "result": 0.3}, {"measurement": "Binding of Control serum LUMC to looped peptides of the protein M of SARS-CoV Urbani", "setting": "[2]", "result": 0.5}, {"measurement": "Rabbit serum linear peptides", "setting": "[3]", "result": 0.5}, {"measurement": "Rabbit serum looped peptides", "setting": "[3]", "result": 0.0}]}
